Values after ≈ are worked out from the molar mass of the structure shown. Read-outs that look alike come from different tables or passages of the source.
What was measured:
[1] = tested on: M. suipneumoniae NB12; assay: MIC against mycoplasma in vitro; type: cell-based; conditions: Mesomycoplasma hyopneumoniae
[2] = tested on: M. suipneumoniae HK(2); assay: MIC against mycoplasma in vitro; type: cell-based; conditions: Mesomycoplasma hyopneumoniae, 144 h
[3] = tested on: M. suipneumoniae J2206/183^b; assay: MIC against mycoplasma in vitro; type: cell-based; conditions: Mesomycoplasma hyopneumoniae, 144 h
[4] = tested on: M. suipneumoniae MS 16; assay: MIC against mycoplasma in vitro; type: cell-based; conditions: Mesomycoplasma hyopneumoniae, MS16, 144 h; M. suipneumoniae MS 16; 6 days, 37° C.; read-out: MIC
[5] = tested on: M. suipneumoniae LABER; assay: MIC against mycoplasma in vitro; type: cell-based; conditions: Mesomycoplasma hyopneumoniae, 144 h
[6] = tested on: M. suipneumoniae UCD 1; assay: MIC against mycoplasma in vitro; type: cell-based; conditions: Mesomycoplasma hyopneumoniae, UCD1, 144 h
[7] = tested on: M. suipneumoniae TAM 6N; assay: MIC against mycoplasma in vitro; type: cell-based; conditions: Mesomycoplasma hyopneumoniae, TAM6N, 144 h
[8] = tested on: M. suipneumoniae ATCC 25095; assay: MIC against mycoplasma in vitro; type: cell-based; conditions: Mesomycoplasma hyopneumoniae, ATCC25095, 144 h
[9] = tested on: M. hyorhinis ATCC 23234; assay: MIC against mycoplasma in vitro; type: cell-based; conditions: Mesomycoplasma hyorhinis, ATCC23234, 144 h
[10] = tested on: M. hyorhinis ATCC 25021; assay: MIC against mycoplasma in vitro; type: cell-based; conditions: Mesomycoplasma hyorhinis, ATCC25021, 144 h
[11] = tested on: M. hyosynoviae ATCC 25591; assay: MIC against mycoplasma in vitro; type: cell-based; conditions: 144 h
[12] = tested on: M. bovis NCTC 10131; assay: microbe, parasite or virus in culture; type: cell-based; conditions: NCTC10131, 144 h
[13] = tested on: M. bovigenitalium ATCC 14173; assay: MIC against mycoplasma in vitro; type: cell-based; conditions: 144 h
[14] = tested on: P. mirabilis 889; assay: MIC against human bacteria in vitro; type: cell-based; conditions: Proteus mirabilis; P. mirabilis 889; 5% chocolated horse blood agar, 18 hours; read-out: MIC
[15] = tested on: K. aerogenes A; assay: MIC against human bacteria in vitro; type: cell-based; conditions: Klebsiella aerogenes; K. aerogenes A; 5% chocolated horse blood agar, 18 hours; read-out: MIC
[16] = tested on: Ps. aeruginosa NCTC 10662; assay: MIC against human bacteria in vitro; type: cell-based; conditions: Pseudomonas aeruginosa, NCTC10662; Ps. aeruginosa NCTC 10662; 5% chocolated horse blood agar, 18 hours; read-out: MIC
[17] = tested on: Haemophilus influenzae Wy21; assay: MIC against human bacteria in vitro; type: cell-based; conditions: Haemophilus influenzae Wy21; 5% chocolated horse blood agar, 18 hours; read-out: MIC
[18] = tested on: Corynebacterium xerosis 9755; assay: MIC against human bacteria in vitro; type: cell-based; conditions: Corynebacterium xerosis 9755; 5% chocolated horse blood agar, 18 hours; read-out: MIC
[19] = tested on: Sarcina lutea 8340; assay: MIC against human bacteria in vitro; type: cell-based; conditions: Micrococcus luteus; Sarcina lutea 8340; 5% chocolated horse blood agar, 18 hours; read-out: MIC
[20] = tested on: Staph. aureus Russell; assay: MIC against human bacteria in vitro; type: cell-based; conditions: Staphylococcus aureus; Staph. aureus Russell; 5% chocolated horse blood agar, 18 hours; read-out: MIC
[21] = tested on: Staph. aureus W2827; assay: MIC against human bacteria in vitro; type: cell-based; conditions: Staphylococcus aureus; Staph. aureus W2827; 5% chocolated horse blood agar, 18 hours; read-out: MIC
[22] = tested on: Strep. faecalis I; assay: MIC against human bacteria in vitro; type: cell-based; conditions: Enterococcus faecalis; Strep. faecalis I; 5% chocolated horse blood agar, 18 hours; read-out: MIC
[23] = tested on: Strep. agalactiae 2788-B; assay: MIC against human bacteria in vitro; type: cell-based; conditions: Streptococcus agalactiae; Strep. agalactiae 2788-B; 5% chocolated horse blood agar, 18 hours; read-out: MIC
[24] = tested on: Bord. bronchiseptica B08; assay: MIC against veterinary bacteria in vitro; conditions: Bordetella bronchiseptica, B08, 18 h
Procedure: (§1) The activity of the compounds of the Examples against various veterinarily important bacteria, was assayed in vitro using two-fold serial dilutions in Diagnostic Sensitivity Test Agar inoculated with 10^4 organisms.

[25] = tested on: Bord. bronchiseptica B09; assay: MIC against veterinary bacteria in vitro; conditions: Bordetella bronchiseptica, B09, 18 h
Procedure: as §1

[26] = tested on: Past. haemolytica PA5; assay: MIC against veterinary bacteria in vitro; conditions: Mannheimia haemolytica, PA5, 18 h
Procedure: as §1

[27] = tested on: Erysipelothrix rhusiopathiae NCTC 8163; assay: MIC against veterinary bacteria in vitro; conditions: Erysipelothrix rhusiopathiae, NCTC8163, 18 h
Procedure: as §1

[28] = tested on: Corynebacterium pyogenes CY1; assay: MIC against veterinary bacteria in vitro; conditions: CY1, 18 h
Procedure: as §1

[29] = tested on: Staph. aureus B4 (pen. resistant); assay: MIC against veterinary bacteria in vitro; conditions: Staphylococcus aureus, 18 h
Procedure: as §1

[30] = tested on: Strep. suis (group D) SPS11; assay: MIC against veterinary bacteria in vitro; conditions: Streptococcus suis, 18 h
Procedure: as §1

[31] = tested on: Strep. dysgalactiae SPD1; assay: MIC against veterinary bacteria in vitro; conditions: Streptococcus dysgalactiae, SPD1, 18 h
Procedure: as §1

[32] = tested on: Past. multocida PA1; assay: MIC against veterinary bacteria in vitro; conditions: Pasteurella multocida, PA1, 18 h
Procedure: as §1

[33] = tested on: Past. multocida PA2; assay: MIC against veterinary bacteria in vitro; conditions: Pasteurella multocida, PA2, 18 h
Procedure: as §1

SMILES | MIC [2] [µg/mL] | MIC [4] [µg/mL] | MIC [6] [µg/mL] | MIC [7] [µg/mL] | MIC [8] [µg/mL] | MIC [9] [µg/mL] | MIC [10] [µg/mL] | MIC [12] [µg/mL] | MIC [13] [µg/mL] | MIC [14] [µg/mL] | MIC [15] [µg/mL] | MIC [16] [µg/mL] | MIC [17] [µg/mL] | MIC [18] [µg/mL] | MIC [19] [µg/mL] | MIC [20] [µg/mL] | MIC [21] [µg/mL] | MIC [22] [µg/mL] | MIC [23] [µg/mL] | MIC [24] [µg/mL] | also measured
C/C(=C\c1ncc(CCCCCCCCO)o1)C[C@@H]1OC[C@H](C[C@@H]2O[C@H]2[C@@H](C)[C@H](C)O)[C@@H](O)[C@H]1O [Example 19, 5-(8-Hydroxyoctyl)-2-(1-normon-2-yl) oxazole A] | 2.5 (≈ 5.04 µM) | 0.5 (≈ 1.01 µM) | 2.5 (≈ 5.04 µM) | 2.5 (≈ 5.04 µM) | 1 (≈ 2.02 µM) | 1 (≈ 2.02 µM) | 1 (≈ 2.02 µM) | 0.025 (≈ 0.0504 µM) | 0.1 (≈ 0.202 µM) | > 128 | > 128 | > 128 | 4 (≈ 8.07 µM) | 128 (≈ 258 µM) | 128 (≈ 258 µM) | 4 (≈ 8.07 µM) | 4 (≈ 8.07 µM) | > 128 | 16 (≈ 32.3 µM) | > 80 | MIC ([1]; NB12, 144 h): 1 µg/mL (≈ 2.02 µM); MIC ([3]; M. suipneumoniae J2206/183^b, 6 days, 37° C., read-out: MIC): 5 µg/mL (≈ 10.1 µM); MIC [5]: 1 µg/mL (≈ 2.02 µM); MIC ([11]; M. hyosynoviae ATCC 25591, 6 days, 37° C., read-out: MIC): 0.5 µg/mL (≈ 1.01 µM); MIC [25]: 20 µg/mL (≈ 40.4 µM); MIC [26]: > 80 µg/mL; MIC [27]: > 80 µg/mL; MIC [28]: > 80 µg/mL; MIC [29]: 1.25 µg/mL (≈ 2.52 µM); MIC [30]: 80 µg/mL (≈ 161 µM); MIC [31]: 2.5 µg/mL (≈ 5.04 µM)
C/C(=C\c1ncc(-c2ccc(S(=O)(=O)N(C)C)cc2)o1)C[C@@H]1OC[C@H](C[C@@H]2O[C@H]2[C@@H](C)[C@H](C)O)[C@@H](O)[C@H]1O [Example 24, 5-p-Dimethylaminosulphonylphenyl-2-(1-normon-2-yl)oxazole A] | 0.25 (≈ 0.454 µM) | 0.1 (≈ 0.182 µM) | 0.25 (≈ 0.454 µM) | 0.25 (≈ 0.454 µM) | 0.1 (≈ 0.182 µM) | 0.1 (≈ 0.182 µM) | 0.1 (≈ 0.182 µM) | 0.025 (≈ 0.0454 µM) | 0.1 (≈ 0.182 µM) | > 64 | > 64 | > 64 | 4 (≈ 7.26 µM) | > 128 | > 128 | 4 (≈ 7.26 µM) | 4 (≈ 7.26 µM) | > 128 | 2 (≈ 3.63 µM) | 80 (≈ 145 µM) | MIC ([1]; 144 h, M. suipneumoniae NB12, Friis broth, 0.9% agarose, 6 days, 37° C., read-out: MIC): 0.1 µg/mL (≈ 0.182 µM); MIC [3]: 0.25 µg/mL (≈ 0.454 µM); MIC [11]: 0.25 µg/mL (≈ 0.454 µM); MIC [25]: 40 µg/mL (≈ 72.6 µM); MIC [32]: 5 µg/mL (≈ 9.08 µM); MIC [33]: 2.5 µg/mL (≈ 4.54 µM); MIC [26]: 40 µg/mL (≈ 72.6 µM); MIC [27]: 40 µg/mL (≈ 72.6 µM); MIC [28]: 80 µg/mL (≈ 145 µM); MIC [29]: 1.25 µg/mL (≈ 2.27 µM); MIC [30]: 2.5 µg/mL (≈ 4.54 µM); MIC [31]: 0.625 µg/mL (≈ 1.13 µM)

Reference: patent publication US5041567A, “Antibacterial monic acid derivatives” (Beecham Group plc, priority 1982, dated 1991)
